Test: physchem
Conditions: octan-1-ol/water, pH 7.4, LogD7.4

| logD | SMILES |
| --- | --- |
| 3.23 | O=S(=O)(Cc1cc(Cl)cc(Cl)c1)NCC(c1ccccc1)N1CCCCCC1 (stereo not drawn) |
| 3.21 | O=S(=O)(NCC(c1ccccc1)N1CCCCCC1)c1ccc(Br)cc1 (stereo not drawn) |
| 3.29 | Cc1cc2n[nH]c(=O)n2c2cc(-c3ccc[nH]3)ccc12 |
| 3.31 | COc1ccc(-c2c(C)c3ccc(OC)cc3oc2=O)cc1 |
| 3.22 | Cc1cc(Cl)ccc1N1CCN(C(=O)COCc2ccncc2)CC1 |
| 3.29 | Nc1cccc(C(=O)NCC23CC4CC(CC(C4)C2)C3)c1Cl |
| 3.3 | O=C(O)c1ccc2cccc(O)c2n1 |
| 3.31 | CSc1ncccc1C(=O)NCCc1ccc(Cl)cc1 |
| 3.2 | Fc1cccc(C(COCc2cc(C(F)(F)F)cc(C(F)(F)F)c2)N2CCNCC2)c1 (stereo not drawn) |
| 3.3 | c1ccc(-c2ccc(COc3ccc4c(c3)CCC(CCN3CCCCC3)C4)cc2)cc1 (stereo not drawn) |
| 3.29 | O=c1c2cnn(-c3ccccc3)c2nc(-c2ccco2)n1-c1ccccc1 |
| 3.19 | O=C(Nc1ccc(F)cc1)c1cccnc1Oc1ccccc1 |
| 3.2 | O=C(CSc1ccccc1)N1CCN(c2ccccc2)CC1 |
| 3.2 | COc1cc2c(Nc3ccc(Cl)cc3F)ncnc2cc1OCCn1cncn1 |
| 3.2 | Cc1cc(C)c2c(n1)sc1c(N3CCN(C)CC3)ncnc12 |
| 3.18 | Nc1cccc2c1C(=O)N(Cc1cccc(Cl)c1)C2=O |
| 3.3 | Oc1nc2ccccc2nc1NCc1ccccc1 |
| 3.26 | O=C(NCc1ccncc1)c1ccc(Oc2ccccc2)cc1 |
| 3.25 | Cc1cc(NC(=O)c2ccc(Cl)cc2)n(-c2ccccc2)n1 |
| 3.2 | COCCN1CCN(CC(=O)Nc2ccc(-c3cccn4c(=O)cc(N5CCOCC5)nc34)c3sc4ccccc4c23)CC1 |
| 3.3 | CN1CCOc2cc(COc3ccccc3)cnc21 |
| 3.3 | O=C1CCOc2nc(C#CC3CCCCC3)ccc21 |
| 3.2 | O=C1CCOc2nc(/C=C/c3ccccc3)ccc21 |
| 3.25 | CC[C@H](NC(=O)c1c(CS(C)(=O)=O)c(-c2ccccc2)nc2ccccc12)c1ccccc1 |
| 3.18 | CC[C@H](NC(=O)c1c([S+](C)[O-])c(-c2ccccc2)nc2cc(Br)ccc12)c1ccccc1 (stereo partly drawn) |
| 3.3 | Oc1ccc(-c2cnc3ccccc3n2)cc1 |

| logD | SMILES |
| --- | --- |
| 3.2 | COc1cc(F)ccc1-c1cncc(CNC(=O)C2CCC2)c1 |
| 3.25 | C[C@H]1CCCN1CCc1cc2cc(-c3ccc(C#N)cc3)ccc2o1 |
| 3.3 | COc1cc(N2CCN(C(N)=O)CC2)ccc1Nc1ncc(Cl)c(-c2cnc3ccccn23)n1 |
| 3.2 | COc1cc(N2CCN(C(C)=O)CC2)ccc1Nc1ncc(Cl)c(-c2cnc3c(C)cccn23)n1 |
| 3.3 | COc1cc(N2CCN(C(C)=O)CC2)ccc1Nc1ncc(Cl)c(-c2cnc3cc(C)ccn23)n1 |
| 3.2 | COc1cc(N2CCN(C(C)=O)CC2)ccc1Nc1ncc(Cl)c(-c2cnc3c(F)cc(F)cn23)n1 |
| 3.3 | CN(C(=O)Cc1ccc(O)cc1)C1CCN(CCC(c2ccccc2)c2ccccc2)CC1 |
| 3.3 | Oc1ccc(-c2nc3ccc(O)cc3o2)cc1 |
| 3.25 | N[C@H](CNC(=O)c1cc2c(-c3ccccc3Cc3ccccc3)cccc2[nH]1)C(=O)O |
| 3.25 | Cc1c(Sc2ccc(Cl)cc2)c2cc(Cl)ccc2n1Cc1nnn[nH]1 |
| 3.3 | N#Cc1c(-c2ccc(-c3ccccc3C(F)(F)F)cc2)nc2ccncc2c1O |
| 3.31 | O=c1[nH]c(-c2ccccc2)nc2cc(Cl)ccc12 |
| 3.2 | COC(=O)c1ccc(NC(=O)c2cc(OC)c(OC)c(OC)c2)cc1 |
| 3.26 | Nc1cc2n[nH]c(=O)n2c2cc(-c3cccs3)ccc12 |
| 3.18 | Nc1cc2n[nH]c(=O)n2c2cc(-c3ccsc3)ccc12 |
| 3.32 | O=C(Nc1ccc(Cl)c(Cl)c1)N1CCN(C[C@H]2CN(C3CC3)CCO2)CC1 |
| 3.24 | O=c1c(-c2ccc([N+](=O)[O-])cc2)coc2cc(O)cc(O)c12 |
| 3.19 | Cc1cnc(-c2ccc(C)c(NC(=O)c3ccc(OCc4ccccn4)cc3)c2)[nH]1 |
| 3.27 | CC(C)(C)OC(=O)N1CCN(c2ncc(OCc3ccc(S(C)(=O)=O)cc3)cn2)CC1 |
| 3.17 | COc1ccc(Oc2cccc(CN3CCCC(n4cc(C)c(=O)[nH]c4=O)C3)c2)cc1 (stereo not drawn) |
| 3.3 | CC#Cc1cncc(-c2cccc(C3(C4CC4)N=C(C)C(N)=N3)c2)c1 (stereo not drawn) |
| 3.3 | O=C(N[C@H]1Cc2ccccc2N(C[C@@H](O)CO)C1=O)c1cc2cc(Cl)sc2[nH]1 |
| 3.3 | C[C@@H](NC(=O)C1(N)CCN(c2ncnc3[nH]ccc23)CC1)c1ccc(Cl)cc1 |
| 3.3 | CCCN(CCC)C(=O)c1cccc(C(=O)N[C@@H](Cc2ccccc2)[C@H](O)CNC2Cc3ccccc3C2)c1 |
| 3.23 | COCCC(=O)N(C)c1ccc(Nc2ncc3cc(-c4ccncc4)ccc3n2)cc1 |
| 3.18 | CC(=O)N[C@H](C)c1ccc(Nc2ncc3cc(-c4ccncc4)ccc3n2)cc1 |

| logD | SMILES |
| --- | --- |
| 3.17 | C[C@@H](NC1=CC(=O)CCC1)c1ccc(Nc2ncc3cc(-c4ccncc4)ccc3n2)cc1 |
| 3.3 | N#C/C(=C(/N)Sc1ccc(N)cc1)c1ccccc1C(F)(F)F |
| 3.2 | CCCCCC[C@H]1OC(=O)CNC(=O)[C@@H]([C@H](C)O)NC(=O)[C@H](CO)NC(=O)[C@H]([C@H](C)CC)NC(=O)[C@H](CC(C)C)N(C)C(=O)[C@@H]1C |
| 3.24 | C[C@H](NC(=O)/C=C/c1ccccc1)c1cccc(N2CCOCC2)c1 |
| 3.2 | C#CCN(c1ccnc(Nc2ccc(OCC(O)CN(C)C)cc2)n1)c1cc(Cl)ccc1Cl (stereo not drawn) |
| 3.32 | CC(C)Cn1c(=O)n(C)c(=O)c2c(S(=O)(=O)N3CC[C@@H](O)C3)c(Cc3ccccc3C(F)(F)F)sc21 |
| 3.3 | O=C(Nc1nc2ccccc2n1CCN1CCOCC1)c1cccc([N+](=O)[O-])c1 |
| 3.3 | COc1cc(N2CCN(C)CC2)c2nc(C(=O)Nc3ccc(N4CCOCC4)cc3)cc(N(C)C)c2c1 |
| 3.27 | O=C(N[C@@H]1Cc2ccccc2N(C[C@@H](O)CO)C1=O)c1cc2cc(Cl)sc2[nH]1 |
| 3.31 | C[C@H](CO)Nc1nc(SCc2cccc(Cl)c2)nc2nc(N)sc12 |
| 3.27 | O=C(N[C@H]1Cc2ccccc2N(C[C@H](O)CO)C1=O)c1cc2cc(Cl)sc2[nH]1 |
| 3.32 | C[C@H](CO)Nc1nc(SCc2cccc(F)c2F)nc2[nH]c(=O)c(C#N)cc12 |
| 3.18 | CC(C)Cn1c(=O)n(C)c(=O)c2c(C(=O)N3CC(C)(O)C3)c(Cc3ccccc3C(F)(F)F)sc21 |
| 3.31 | CNC(=O)c1ccc(Nc2ncc(F)c(-c3cnc(C)n3C(C)C)n2)cc1F |
| 3.2 | Cc1oc(S(C)(=O)=O)cc1-c1c2c(=O)n(C)c(=O)n(CC3CC3)c2nn1Cc1ccnc2ccc(Cl)cc12 |
| 3.26 | Nc1ncc(NC(=O)c2cc(NC(=O)c3cccc(C(F)(F)F)c3)ccc2Cl)cc1Cl |
| 3.3 | O=c1cc(-c2ccc(O)cc2)oc2ccc(O)cc12 |
| 3.22 | O=c1oc2ccccc2cc1-c1ccccc1 |
| 3.21 | O=C(COCc1ccccc1)Nc1ccc2c(c1)C(=O)C(=O)c1ccccc1-2 |
| 3.28 | Clc1ccc2[nH]ccc2c1 |
| 3.27 | Cc1cc(Oc2ccnc(Nc3cccc(N4CCOCC4)c3)c2)c(-c2ccccn2)nc1C |
| 3.3 | Oc1ccc(CCc2ccc(O)cc2)cc1 |
| 3.17 | Cn1c(-c2ccccc2)cc2onc(-c3ccncc3)c2c1=O |
| 3.22 | CSc1nc2cc(Cl)ccc2[nH]1 |
| 3.2 | O=[N+]([O-])c1ccc2c(c1)N(c1cccc[n+]1[O-])CC(C(F)F)(C(F)F)O2 |

| SMILES | logD |
| --- | --- |
| Nc1nc2cc3c(cc2s1)CCN(Cc1cccc(F)c1)CC3 | 3.3 |

Reference: ChEMBL document CHEMBL3301361, “Experimental in vitro DMPK and physicochemical data on a set of publicly disclosed compounds”
